Results on 25 compounds are retold here after patent US20210070747A1, “2(1H)-QUINOLINONE DERIVATIVE” (priority 2017, published 2021).

In brackets after ≈: the same amount, converted by molar mass. Read-outs that look alike come from different tables or passages of the source.

One test deals with T1, E. coli DNA gyrase (Escherichia coli, UniProt P0AES6).
T1 construct: made in house; host or cells: E. coli BL21 (DE3)
As to the kind of experiment: Test for evaluating the activity of inhibiting E. coli DNA gyrase enzyme (Method 2, supercoiling, recombinant gyrA/gyrB complex). Format: biochemical. As to the method:
The enzymatic activity of E. coli DNA gyrase was measured by a method comprising reacting DNA gyrase and its substrate, relaxed pBR322 (Inspiralis), in the presence of ATP and detecting the post-reaction supercoiled pBR322/relaxed pBR322 ratio with H19.
Specifically, to 1 ng/μL of relaxed pBR322, E. coli DNA gyrase enzyme (the gyrA or gyrB gene was incorporated into the pET15b plasmid and after expressing them in E. coli BL21 (DE3), purification was performed using a Ni-NTA column to form a complex at room temperature) was added at a final concentration of 0.135 nmol/mL and the mixture was incubated for 60 minutes at room temperature. This reaction was carried out in 20 mmol/L tris-HCl buffered solution (pH 8.0) comprising 0.5 mmol/L ATP, 0.005% bridge 35, 35 mmol/L ammonium acetate, 8 mmol/L magnesium chloride, 4.6% glycerol, and 1 mmol/L dithiothreitol. To the reaction mixture, H19 was added to bring the reaction to an end; thereafter, the supercoiled pBR322/relaxed pBR322 ratio was detected at excitation wavelength/emission wavelength=485 nm/535 nm. An inhibition curve was obtained by allowing the analyte compound to be present at varying concentrations during the reaction described above.

The subject of another test is E. Coli ATCC 25922. Kind of test: Test for evaluating antibacterial activity (E. coli), broth microdilution MIC. The test is classed as cell-based. The following applies: Escherichia coli, ATCC25922; 35° C., 18 hours, cation-adjusted Mueller-Hinton medium. As to the method:
Minimum inhibitory concentration (MIC) was measured using the broth microdilution method described below in accordance with a modification of the standard method specified by CLSI (Clinical & Laboratory Standards Institute).
Bacterial cells under test were cultured overnight on a heart infusion agar medium, scraped off and suspended at a concentration equivalent to McFarland 0.5 turbidity; the suspension thus obtained was diluted 10 folds to give a liquid inoculum. The inoculum (0.005 mL) was inoculated on a cation-adjusted Mueller-Hinton medium containing the analyte compound and cultured at 35° C. for 18 hours. A minimum drug concentration at which no bacterial growth was macroscopically visible was designated MIC.
A general note: Dilution methods test growth across graded concentrations, often in twofold steps.

[1] abbreviates: Method 2, read-out: E. Coli Gyrase supercoiling IC50.

With `CNc1cccc2cc(C(=O)Nc3cnc(NCCN4CCN(C)CC4)nc3)c(=O)[nH]c12` [Example 34, 8-(methylamino)-N-(2-{[2-(4-methylpiperazine-1-yl)ethyl]amino}pyrimidine-5-yl)-2-oxo-1,2-dihydroquinoline-3-carboxamide], the IC50 (commonly the concentration needed to halve the response being measured) at E. coli DNA gyrase (setting [1]) came out at 23.2 nM. Also, the MIC (as a rule, the least concentration at which growth counts as inhibited) in the test on E. Coli ATCC 25922 was greater than 64 µg/mL.

As for `CNc1cccc2cc(C(=O)Nc3cnc(NCc4csc(N)n4)nc3)c(=O)[nH]c12` [Example 35, N-(2-[[(2-Amino-1,3-thiazol-4-yl)methyl]amino]pyrimidin-5-yl)-8-(methylamino)-2-oxo-1,2-dihydroquinoline-3-carboxamide], the IC50 on E. coli DNA gyrase (setting [1]) is 1.47 nM. This compound also gave an MIC in the test on E. Coli ATCC 25922 greater than 4 µg/mL.

Consider `CNc1cccc2cc(C(=O)NCCc3noc(=O)[nH]3)c(=O)[nH]c12` [Example 36, 8-(methylamino)-2-oxo-N-[2-(5-oxo-4,5-dihydro-1,2,4-oxadiazole-3-y1)ethyl]-1,2-dihydroquinoline-3-carboxamide], for which, on E. coli DNA gyrase (setting [1]), the IC50 is 71.9 nM. Also, in the test on E. Coli ATCC 25922, the MIC was greater than 32 µg/mL.

`CNc1cccc2cc(C(=O)Nc3ccc(C(=O)NC(CO)CO)cc3)c(=O)[nH]c12` [Example 38, N-{4-[(1,3-dihydroxypropane-2-yl)carbamoyl]phenyl}-8-(methylamino)-2-oxo-1,2-dihydroquinoline-3-carboxamide]: the IC50 on E. coli DNA gyrase (setting [1]) stood at 4730 nM.

With `CNc1cccc2cc(C(=O)Nc3cnc(N4CCC(N)(C(=O)O)CC4)nc3)c(=O)[nH]c12.Cl` [Example 39, 4-Amino-1-(5-[[8-(methylamino)-2-oxo-1,2-dihydroquinoline-3-carbonyl]amino]pyrimidin-2-yl)piperidine-4-carboxylic acid-hydrochloride], on E. coli DNA gyrase, the IC50 was found to be 48.7 nM. Also, the MIC in the test with E. Coli ATCC 25922 is greater than 8 µg/mL.

In the case of `CNc1cccc2cc(C(=O)Nc3cnc(NCCCN(CCO)CCO)nc3)c(=O)[nH]c12` [Example 41, N-[2-({3-[bis(2-hydroxyethyl)amino]propyl}amino)pyrimidine-5-yl]-8-(methylamino)-2-oxo-1,2-dihydroquinoline-3-carboxamide], on E. coli DNA gyrase (setting [1]), the IC50 was 149 nM. Also, the MIC against E. Coli ATCC 25922 is greater than 64 µg/mL.

For `CNc1cc(F)cc2cc(C(=O)N(C)c3cncnc3)c(=O)[nH]c12` [Example 61, 6-fluoro-N-methyl-8-(methylamino)-2-oxo-N-(pyrimidine-5-yl)-1,2-dihydroquinoline-3-carboxamide], the IC50 at E. coli DNA gyrase (setting [1]) amounted to 334 nM.

For `CNc1cc(F)cc2cc(C(=O)Nc3cnc(C(=O)NCCCN4CCOCC4)nc3)c(=O)[nH]c12` [Example 82, 6-fluoro-8-(methylamino)-N-(2-{[3-(morpholine-4-yl)propyl]carbamoyl}pyrimidine-5-yl)-2-oxo-1,2-dihydroquinoline-3-carboxamide], the IC50 on E. coli DNA gyrase (setting [1]) is 0.47 nM. Besides, the MIC in the test with E. Coli ATCC 25922 is 0.25 µg/mL (≈ 0.517 µM).

`CNc1cc(F)cc2cc(C(=O)Nc3ccc(C(=O)NCCN4CCOCC4)cc3CN(C)C3CCN(C)CC3)c(=O)[nH]c12` [Example 84, 6-fluoro-8-(methylamino)-N-(2-{[methyl(1-methylpiperidine-4-yl)amino]methyl}-4-{[2-(morpholine-4-yl)ethyl]carbamoyl}phenyl)-2-oxo-1,2-dihydroquinoline-3-carboxamide]: the IC50 at E. coli DNA gyrase (setting [1]) is 11.4 nM. Moreover, the MIC against E. Coli ATCC 25922 was greater than 32 µg/mL.

As to `CNc1cc(F)cc2cc(C(=O)Nc3ccc(C(=O)NCCN4CCOCC4)cc3C)c(=O)[nH]c12` [Example 86, 6-fluoro-8-(methylamino)-N-(2-methyl-4-{[2-(morpholine-4-yl)ethyl]carbamoyl}phenyl)-2-oxo-1,2-dihydroquinoline-3-carboxamide], the half-inhibitory concentration (IC50) on E. coli DNA gyrase (setting [1]) turned out to be 34.4 nM. Besides, the MIC in the test with E. Coli ATCC 25922 is greater than 4 µg/mL.

For the compound `CNc1cc(F)cc2cc(C(=O)Nc3nccn3C)c(=O)[nH]c12` [Example 87, 6-fluoro-8-(methylamino)-N-(1-methyl-1H-imidazole-2-yl)-2-oxo-1,2-dihydroquinoline-3-carboxamide], the IC50 at E. coli DNA gyrase (setting [1]) worked out at 1040 nM.

In the case of `CNc1cc(F)cc2cc(C(=O)Nc3ccn(C)n3)c(=O)[nH]c12` [Example 88, 6-fluoro-8-(methylamino)-N-(1-methyl-1H-pyrazole-3-yl)-2-oxo-1,2-dihydroquinoline-3-carboxamide], the inhibition (as a rule, how much of the control response was suppressed) at 10 µM on E. coli DNA gyrase (Method 2, at 10000 nM) was found to be 41%.

On to `CNc1cc(F)cc2cc(C(=O)Nc3ccnn3C)c(=O)[nH]c12` [Example 89, 6-fluoro-8-(methylamino)-N-(1-methyl-1H-pyrazole-5-yl)-2-oxo-1,2-dihydroquinoline-3-carboxamide], for which the IC50 on E. coli DNA gyrase (setting [1]) came out at 29.9 nM. For the same compound, in the test on E. Coli ATCC 25922, the MIC is greater than 8 µg/mL.

In the case of `CNc1cc(F)cc2cc(C(=O)Nc3cnc(C(=O)NCCN4CCCCC4)nc3)c(=O)[nH]c12.O=CO` [Example 90, 6-fluoro-8-(methylamino)-2-oxo-N-(2-{[2-(piperidine-1-yl)ethyl]carbamoyl}pyrimidine-5-yl)-1,2-dihydroquinoline-3-carboxamide-formate], the IC50 at E. coli DNA gyrase amounted to 2.45 nM. Also, in the test on E. Coli ATCC 25922, the MIC is greater than 16 µg/mL.

`CNc1cc(F)cc2cc(C(=O)Nc3ccc(C(=O)NO)cc3)c(=O)[nH]c12` [Example 92, 6-Fluoro-N-[4-(hydroxycarbamoyl)phenyl]-8-(methylamino)-2-oxo-1,2-dihydroquinoline-3-carboxamide]: the IC50 on E. coli DNA gyrase (setting [1]) is 2.56 nM. In the test with E. Coli ATCC 25922, the MIC is greater than 4 µg/mL.

As for `CCc1cc(C(=O)NCCN2CCOCC2)ccc1NC(=O)c1cc2cc(F)cc(NC)c2[nH]c1=O` [Example 94, N-(2-ethyl-4-{[2-(morpholine-4-yl)ethyl]carbamoyl}phenyl)-6-fluoro-8-(methylamino)-2-oxo-1,2-dihydroquinoline-3-carboxamide], the IC50 on E. coli DNA gyrase (setting [1]) is 131 nM. In addition, the MIC with E. Coli ATCC 25922 was greater than 2 µg/mL.

Turning to `CNc1cc(F)cc2cc(C(=O)Nc3ccc(C(=O)O)cc3CN(C)C3CC3)c(=O)[nH]c12` [Example 97, 3-{[cyclopropyl (methyl)amino]methyl}-4-{[6-fluoro-8-(methylamino)-2-oxo-1,2-dihydroquinoline-3-carbonyl]amino} benzoic acid], on E. coli DNA gyrase, the IC50 is 0.6 nM. The MIC against E. Coli ATCC 25922 is greater than 8 µg/mL.

With `CCCCCN(CCCCC)Cc1cc(C(=O)O)ccc1NC(=O)c1cc2cc(F)cc(NC)c2[nH]c1=O` [Example 101, 3-[(dipentylamino)methyl]-4-{[6-fluoro-8-(methylamino)-2-oxo-1,2-dihydroquinoline-3-carbonyl]amino} benzoic acid], the IC50 at E. coli DNA gyrase (setting [1]) is 0.8 nM.

As to `CNc1cc(F)cc2cc(C(=O)Nc3ccc(C(=O)O)cc3CCC3CCCCC3)c(=O)[nH]c12` [Example 102, 3-(2-cyclohexylethyl)-4-{[6-fluoro-8-(methylamino)-2-oxo-1,2-dihydroquinoline-3-carbonyl]amino} benzoic acid], at E. coli DNA gyrase, the IC50 worked out at 228 nM.

As to `CNc1cc(F)cc2cc(C(=O)Nc3ccc(C(=O)O)cc3CN(CCCN(C)C)CCCN(C)C)c(=O)[nH]c12` [Example 105, 3-({bis[3-(dimethylamino)propyl]amino}methyl)-4-{[6-fluoro-8-(methylamino)-2-oxo-1,2-dihydroquinoline-3-carbonyl]amino} benzoic acid], the IC50 at E. coli DNA gyrase (setting [1]) is 29.8 nM. The same compound yielded an MIC in the test on E. Coli ATCC 25922 greater than 32 µg/mL.

Turning to `CNc1cc(F)cc2cc(C(=O)Nc3ccc(C(=O)O)cc3CN3CCCC(N)C3)c(=O)[nH]c12.Cl` (stereo not shown) [Example 109, 3-[(3-Aminopiperidin-1-yl)methyl]-4-[[6-fluoro-8-(methylamino)-2-oxo-1,2-dihydroquinoline-3-carbonyl]amino]benzoic acid-hydrochloride], on E. coli DNA gyrase, the IC50 is 15.1 nM. This compound showed a minimum inhibitory concentration (MIC) against E. Coli ATCC 25922 greater than 32 µg/mL.

`CNc1cc(F)cc2cc(C(=O)Nc3ccc(C(=O)O)cc3CCN(C)C3CCCCC3)c(=O)[nH]c12` [Example 111, 3-{2-[cyclohexyl (methyl)amino]ethyl}-4-{[6-fluoro-8-(methylamino)-2-oxo-1,2-dihydroquinoline-3-carbonyl]amino} benzoic acid]: at E. coli DNA gyrase (setting [1]), the half-inhibitory concentration (IC50) was determined as 2.94 nM. In the test with E. Coli ATCC 25922, this compound showed an MIC greater than 32 µg/mL.

Regarding `CCCCCN(CCCCC)Cc1cc(C(=O)O)ccc1NC(=O)c1cc2cncc(NC)c2[nH]c1=O` [Example 112, 3-[(dipentylamino)methyl]-4-{[8-(methylamino)-2-oxo-1,2-dihydro-1,6-naphthyridine-3-carbonyl]amino}benzoic acid], the IC50 at E. coli DNA gyrase (setting [1]) was 4.13 nM. The MIC in the test with E. Coli ATCC 25922 is greater than 64 µg/mL.

Consider `CNc1cc(F)cc2cc(C(=O)Nc3ccc(C(=O)O)cc3CNC3CCCCC3)c(=O)[nH]c12.O=C(O)C(F)(F)F` [Example 113, 3-[(cyclohexylamino)methyl]-4-{[6-fluoro-8-(methylamino)-2-oxo-1,2-dihydroquinoline-3-carbonyl]amino}benzoic acid-trifluoroacetate], for which, at E. coli DNA gyrase, the IC50 is 0.26 nM. Further, the MIC with E. Coli ATCC 25922 amounted to 32 µg/mL.

As to `CNc1cc(F)cc2cc(C(=O)Nc3ccc(CO)cc3CN(CCO)C3CCCCC3)c(=O)[nH]c12` [Example 124, N-[2-{[cyclohexyl(2-hydroxyethyl)amino]methyl}-4-(hydroxymethyl)phenyl]-6-fluoro-8-(methylamino)-2-oxo-1,2-dihydroquinoline-3-carboxamide], the IC50 on E. coli DNA gyrase (setting [1]) came out at 1.6 nM.
